This is an account of results in publication PMC7918738, “Microtubule Destabilizing Sulfonamides as an Alternative to Taxane-Based Chemotherapy” (International Journal of Molecular Sciences, 2021).

Data set [1] deals with HT-29 (colon adenocarcinoma). The data set is described as follows: Antiproliferative activity against CA-4-resistant HT-29 with or without verapamil (sensitivity to MDR pumps, XTT). In kind it is cell-based, human. The conditions noted are these: verapamil alone at 10 µM. An excerpt:
Detecting changes in drug potency when inhibiting MDR-mediated efflux reflect that these transporters reduce the intracellular drug concentration. HT-29 has been reported to express moderate levels of MDR1, accounting for a resistant phenotype. A comparison of the antiproliferative IC50 values of each MDS in the presence or absence of verapamil provides an estimate of the susceptibility of each compound to efflux pumps.
(§1) MCF7 (human breast carcinoma), SKOV-3 (human ovarian carcinoma), OVCAR-3 (human ovarian carcinoma), OVCAR-8 (human ovarian carcinoma), and HeLa (human cervical carcinoma) cell lines were cultured in Dulbecco’s Modified Eagle’s Medium (DMEM) (Gibco, Thermo Fischer Scientific) containing 10% (v/v) heat-inactivated fetal bovine serum (HIFBS) (Lonza-Cambrex, Karlskoga, Sweden), 2 mM L-glutamine (Lonza-Cambrex, Karlskoga, Sweden), 100 μg/mL streptomycin, and 100 IU/mL penicillin (Lonza-Cambrex) at 37 °C in humidified 95% air and 5% CO2. HT-29 (human colon carcinoma), IGROV-1 (human ovarian carcinoma), and A2780 (human ovarian carcinoma) cell lines were cultured in RPMI 1640 medium (Gibco, Thermo Fischer Scientific) supplemented with 10% HIFBS, 100 μg/mL streptomycin, and 100 IU/mL penicillin at 37 °C in humidified 95% air and 5% CO2 atmosphere. The presence of mycoplasma was routinely checked with MycoAlert kit (Lonza-Cambrex) and only mycoplasma-free cells were used in the experiments. Ovarian tumor cell lines were originally acquired from Dr Atanasio Pandiella from Centro de Investigación del Cáncer (CIC), Salamanca, Spain. HeLa, HT-29 and MCF7 tumor cell lines were provided by Dr Faustino Mollinedo from Centro de Investigaciones Biológicas Margarita Salas, Madrid, Spain.
MCF7, HeLa, and HT-29 cell proliferation, when treated with the corresponding compounds, were determined using the XTT (sodium 3’-[1(phenylaminocarbonyl)-3,4-tetrazolium]-bis(4-methoxy-6-nitro)-benzenesulfonic acid hydrate) cell proliferation kit (Roche Molecular Biochemicals, Mannheim, Germany). A freshly prepared mixture of XTT labeling reagent with 0.02% (v/v) PMS (N-methyl-dibenzopyrazine methyl sulfate) electron coupling reagent was added to cells (50 µL/well in 96-well plates, total volume of 160 µL/well). Cells were incubated under standard culture conditions for 4 h (MCF7 and HeLa) or 6 h (HT-29). The absorbance of the formazan product generated was measured at 450 nm using a multi-well plate reader. SKOV-3, OVCAR-3, OVCAR-8, IGROV-1, A-2780 cell proliferation, when treated with the corresponding compound, were determined using MTT (3-(4,5-dimethylthiazol-2-yl)-2,5-diphenyl-2H-tetrazolium bromide) (Sigma-Aldrich, St. Louis, MO, USA). MTT in Phosphate Buffer Saline (PBS) (5 mg/ml) was added to cells (110 µL/well in 24-well plates, total volume of 1110 µL/well). After 1 hour of incubation, the medium was aspirated, and formazan violet crystals were dissolved in dimethyl sulfoxide (DMSO) (500 µL/well). Absorbance was measured at 570 nm in a plate reader (Ultra Evolution, Tecan, Männedorf, Suiza). To determine cell viability, cells in exponential growth phase were seeded (100 µL/well in 96-well plates and 1000 µL/well in 24-well plates) with appropriate cell line concentration (1.5·10^4 cells/mL for MCF7 and HeLa, 3·10^4 cells/mL for HT-29, and 1·10^4 cells/mL for SKOV-3, OVCAR-3, OVCAR-8, IGROV-1, and A-2780) in complete RPMI 1640 or DMEM medium at 37°C and 5% CO2 atmosphere. After 24 h incubation, to allow cells to attach to the plates, all compounds were added at 1 µM concentration and the effect on the proliferation was evaluated 72 h post-treatment. […] Non-linear curves fitting the experimental data were carried out for each compound. Compounds were dissolved in DMSO and the final solvent concentrations never exceeded 0.5% (v/v). The control wells included […] with 0.5% (v/v) DMSO and the positive control. 10 µM verapamil was included as a control for the HT-29 cell line.
For orientation: Formazan colour is commonly taken as a measure of viable cells.

The nature of data set [2]: Aqueous solubility, saturation shake-flask method, UV absorbance. The settings on record: pH 7, aqueous buffer, thermodynamic from solid.
Experimental: UV absorbance at three maximum absorbance wavelengths of selected compounds was measured after 48 h shaking and subsequent microfiltration.
The aqueous solubility of the sulfonamides was determined using an approach based on the saturation shake-flask method. Tested compounds (1–2 mg) were stirred in pH 7.0 phosphate buffer (300 µL) for 48 h at room temperature. The resulting suspension was filtered over a 45 µm filter to discard insoluble residues, and the concentration in the supernatant was measured by UV absorbance. To determine the concentration, a scan between 270 and 400 nm was performed in a Helios-α UV-320 Spectrophotometer (Thermo-Spectronic, Thermo Fischer Scientific, Waltham, MA, USA) for each tested compound. Then, three maximum wavelengths of absorbance per compound were selected from the previous scan and calibration curves were performed at these three wavelengths. Solubility results are given as the average of the three measurements.
Data set [3] concerns tubulin (microtubular protein isolated from calf brain). Nature of the data set: Tubulin Polymerization Inhibition (TPI) assay, turbidity. It counts as biochemical. The conditions noted are these: 1.5 mg/mL microtubular protein. As for the experimental part: The effect of all the synthesized compounds on the in vitro tubulin polymerization was evaluated at 10 µM. All the compounds that inhibited polymerization more than 30% were also assayed at 20 µM. IC50 values were calculated for those compounds inhibiting tubulin polymerization by at least 50% at 20 µM (Table 1 and Supplemental Figure S2).
Microtubular protein was isolated from calf brain according to the modified Shelanski method by two cycles of temperature-dependent assembly/disassembly and stored at −80 °C. Before each use, protein concentration was determined by the Bradford method taking BSA as standard.
Tubulin polymerization was monitored using a Helios α spectrophotometer by measuring the increase in turbidity at 450 nm, caused by a shift from 4 °C to 37 °C, which allows the in vitro microtubular protein to depolymerize and polymerize, respectively. The assay was carried out in quartz cuvettes containing 1.5 mg/mL microtubular protein and the ligand (except for control cuvette with only DMSO at the same concentration) in a mixture of 0.1 M MES buffer, 1 mM EGTA, 1 mM MgCl2, 1 mM β-ME, and 1.5 mM GTP at pH 6.7 (final volume 500 µL). Cuvettes were preincubated at 20 °C for 30 min, to allow ligand binding to tubulin, and subsequently cooled on ice for 10 min. Then, the experiment starts at 4 °C to establish the initial baseline. The assembly process was initiated by a temperature shift to 37 °C and the turbidity produced by tubulin polymerization can be measured by an absorbance increase. After reaching a stable plateau, the temperature was switched back to 4 °C to return to the initial absorption values (to confirm the reversible nature of the monitored process and to determine whether or not the microtubular tubular protein has stabilized). The difference in amplitude between the stable plateau and the initial baseline of the curves was taken as the degree of tubulin polymerization for each experiment. Comparison with control curves under identical conditions but without ligands yielded TPI as a percentage value. All compounds were tested at 10 µM concentration. Compounds that inhibited tubulin polymerization by at least 30% at 10 µM were tested at 20 µM. IC50 values were calculated for compounds that inhibit tubulin polymerization by more than 50% at 20 µM. Compounds were dissolved in DMSO, and the final solvent concentration never exceeded 4% (v/v), which has been reported not to interfere with the assembly process. All the measurements were carried out in at least two independent experiments using microtubular protein from different preparations.

Data set [4] relates to HeLa (cervix epithelioid carcinoma). The data set is described as follows: Antiproliferative activity against HeLa (XTT colorimetric method). It counts as cell-based. The settings on record: Homo sapiens, 72 h treatment. As for the experimental part:
(§2) The in vitro antiproliferative activity of MDS at 1 µM after 72 h treatments was evaluated by a colorimetric method against the human tumor cell lines HeLa (cervix epithelioid carcinoma) and MCF7 (breast adenocarcinoma). Compounds showing more than 40% inhibition at 1 µM in at least three independent assays were evaluated in a range of concentrations between 0.1 nM and 10 µM for the determination of half-maximal inhibitory concentrations (IC50) (Table 1). Paclitaxel, CA-4, and ABT-751 were used as references.
as §1
(§3) MCF7, HeLa, and HT-29 cell proliferation, when treated with the corresponding compounds, were determined using the XTT (sodium 3’-[1(phenylaminocarbonyl)-3,4-tetrazolium]-bis(4-methoxy-6-nitro)-benzenesulfonic acid hydrate) cell proliferation kit (Roche Molecular Biochemicals, Mannheim, Germany). A freshly prepared mixture of XTT labeling reagent with 0.02% (v/v) PMS (N-methyl-dibenzopyrazine methyl sulfate) electron coupling reagent was added to cells (50 µL/well in 96-well plates, total volume of 160 µL/well). Cells were incubated under standard culture conditions for 4 h (MCF7 and HeLa) or 6 h (HT-29). The absorbance of the formazan product generated was measured at 450 nm using a multi-well plate reader. SKOV-3, OVCAR-3, OVCAR-8, IGROV-1, A-2780 cell proliferation, when treated with the corresponding compound, were determined using MTT (3-(4,5-dimethylthiazol-2-yl)-2,5-diphenyl-2H-tetrazolium bromide) (Sigma-Aldrich, St. Louis, MO, USA). MTT in Phosphate Buffer Saline (PBS) (5 mg/ml) was added to cells (110 µL/well in 24-well plates, total volume of 1110 µL/well). After 1 hour of incubation, the medium was aspirated, and formazan violet crystals were dissolved in dimethyl sulfoxide (DMSO) (500 µL/well). Absorbance was measured at 570 nm in a plate reader (Ultra Evolution, Tecan, Männedorf, Suiza). To determine cell viability, cells in exponential growth phase were seeded (100 µL/well in 96-well plates and 1000 µL/well in 24-well plates) with appropriate cell line concentration (1.5·10^4 cells/mL for MCF7 and HeLa, 3·10^4 cells/mL for HT-29, and 1·10^4 cells/mL for SKOV-3, OVCAR-3, OVCAR-8, IGROV-1, and A-2780) in complete RPMI 1640 or DMEM medium at 37°C and 5% CO2 atmosphere. After 24 h incubation, to allow cells to attach to the plates, all compounds were added at 1 µM concentration and the effect on the proliferation was evaluated 72 h post-treatment. Compounds showing antiproliferative effects at tested concentration were selected for IC50 calculation (50% inhibitory concentration with respect to the untreated controls) from 10^−5 to 10^−10 M concentration. Non-linear curves fitting the experimental data were carried out for each compound. […]

Data set [5] deals with MCF7 (breast adenocarcinoma). The data set is described as follows: Antiproliferative activity against MCF7 (XTT colorimetric method). It counts as cell-based. The conditions noted are these: Homo sapiens, 72 h treatment. As for the experimental part:
as §2, §1, §3

In brackets after ≈: the same amount, converted by molar mass.

Turning to `COc1ccc(CCN(C)CCCC(C#N)(c2ccc(OC)c(OC)c2)C(C)C)cc1OC` (stereo not drawn) [verapamil, reference compound], in data set [1], the “Effect on HT-29 cell proliferation” value is reported as “did not affect cell proliferation”.
Consider `COc1ccc(S(=O)(=O)Nc2cccnc2Nc2ccc(O)cc2)cc1` [ABT-751, reference compound], for which the concentration in solution in data set [2] (solubility at 48 h) was 40 µg/mL (≈ 108 µM). Also, the IC50 in data set [3] worked out at 4400 nM; in data set [4], 388 nM; in data set [5] it was 180 nM. Moreover, the “TPI % 10 µM” value in data set [3] (compound at 10 µM) came out at 69%.

Broadly, the solubility is the concentration that dissolves in the medium under given conditions. Higher therefore signals a readily soluble substance. Usually IC50 stands for the concentration at which inhibition is half-maximal. The low end stands for inhibition by little substance, the high end for a need for much substance.
